Source: US8703825B2, “Compounds, use thereof as medicaments, and method of preparation thereof” (Universite de Lorraine, priority 2008, dated 2014)

System: HaCaT and/or MRC5 eukaryotic cells
Assay type: cell-based, human
Description: The eukaryotic cells used in our study are HaCaT cells (human keratinocytes), which were kindly supplied by the Pierre Fabre Institute (Toulouse, France); and MRC-5 cells (human embryonic fibroblasts), which were obtained from the company BioMérieux (Lyons, France). These cells are cultivated in DMEM (“Dulbecco's modified Eagle's medium”, Invitrogen 61965) for the HaCaT cells, and MEM (“modified Eagle's medium”, Invitrogen 41090); 10% of fetal calf serum (FCS, Invitrogen, 10270, Batch 40Q5150K) in a humid chamber at 37° C., under 5% CO2. The HaCaT and MRC-5 cells were seeded at 10^4 cells/well in 96-well plates (Sarstedt 831835). […]
It is based on the reduction of yellow tetrazolium salts to purple crystals of formazan, mainly by mitochondrial dehydrogenases. The quantity of formazan formed is proportional to the number of live cells. […] The absorbance is measured at 540 nm with a reference wavelength at 690 nm, using an ELISA plate reader (Multiskan E X, Thermo Electron Corporation, France). […]
The cytotoxicity test is based on incorporation of a vital dye, Neutral Red, in the lysosomes of the viable cells, after exposure of the cells to different concentrations of the test molecules. The quantity of dye, after extraction from the lysosomes, is quantified by means of a spectrophotometer and compared with that obtained in the case of “control” cells, not exposed to the test molecules. […]

N=C(N)NCCc1ccc(OCCCCCCOc2ccc(CCNC(=N)N)cc2)cc1 [compound 6, 1,6-bis(4-(2-guanidinoethyl)phenoxy)hexane]
effect on viability and cytotoxicity (in words): slightly less pronounced effect on viability and cytotoxicity
